Test results as given in PubChem BioAssay (NCI).
Several values for one entry are separate records, joined by “and”; a condition that tells them apart may be missing. Equal values may be shown once.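 Assay format: 96-well plates, 48-hour exposure. GI50 is the concentration that inhibits growth by half. TGI marks complete inhibition of growth.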

Key:
Assay in all cases: NCI tumour cell line growth inhibition, 48 h
MDA-N = system: MDA-N
KM20L2 colon = system: KM20L2 colon
HOP-18 NSCLC = system: HOP-18 NSCLC
XF 498 CNS = system: XF 498 CNS
DLD-1 colon = system: DLD-1 colon
LXFL 529 NSCLC = system: LXFL 529 NSCLC
SNB-78 CNS = system: SNB-78 CNS
DMS 114 small cell lung = system: DMS 114 small cell lung
RXF-631 renal = system: RXF-631 renal
SN12K1 renal = system: SN12K1 renal
P388/ADR leukemia = system: P388/ADR leukemia

SMILES	TGI (MDA-N) [µM]	TGI (KM20L2 colon) [µM]	TGI (HOP-18 NSCLC) [µM]	TGI (XF 498 CNS)	TGI (DLD-1 colon) [µM]	TGI (LXFL 529 NSCLC)	TGI (SNB-78 CNS)	TGI (DMS 114 small cell lung)	TGI (RXF-631 renal) [µM]	other results
COC(=O)Nc1nc2ccccc2[nH]1	11.6									
O=C(O)CCNS(=O)(=O)c1ccc2ccccc2c1		> 100	> 100	> 100 µM	> 100	> 100 µM				
Cc1ccc(NC(=O)C(=O)CC(=O)c2c(C)n([O-])c3ccccc3[n+]2=O)cc1C		> 100	> 100			> 100 µM	> 100 µM			
O=C(C(=O)n1ncc(Cl)c(Cl)c1=O)n1ncc(Cl)c(Cl)c1=O		> 85.8	67	> 93 µM	32.4	41.8 µM	88.2 µM	> 62.8 µM	> 100	
Cc1ccc(N=C[N-]c2ccc(C)cc2)cc1.Cc1ccc(N=C[N-]c2ccc(C)cc2)cc1.O=C([O-])C(F)(F)F.O=C([O-])C(F)(F)F.[OH3+].[OH3+].[Rh+2].[Rh+2]		> 100	71.4	59.4 µM	> 100	74.2 µM	> 100 µM	> 100 µM	> 100	GI50 (KM20L2 colon): 39.9 µM; GI50 (HOP-18 NSCLC): 27.7 µM; GI50 (DMS 114 small cell lung): 38.4 µM; GI50 (XF 498 CNS): 22.5 µM; GI50 (RXF-631 renal): > 100 µM; GI50 (DLD-1 colon): 56.7 µM; GI50 (LXFL 529 NSCLC): 28.4 µM; GI50 (SNB-78 CNS): 53.3 µM
Cc1cc(-c2c(F)cc3c4nn([C@H]5CC[C@@H](N(C)C)CC5)c(=O)c-4cn(C4CC4)c3c2F)cc(C)n1	6.75	0.462	0.919	0.757 µM and 2.29 µM	2.85	0.267 µM and 1.31 µM	11.5 µM and 6.93 µM	0.124 µM and 0.36 µM	0.256	GI50 (DMS 114 small cell lung): 0.111 µM; GI50 (XF 498 CNS): 0.394 µM; GI50 (DLD-1 colon): 0.156 µM; GI50 (LXFL 529 NSCLC): 0.227 µM; GI50 (SNB-78 CNS): 0.669 µM
S=C1Cc2c(-c3ccc(Br)cc3)cc(-c3ccccc3)nc2-c2ccccc2N1	9.03									
CN(C)CC1CC/C(=C\c2ccc3c(c2)OCO3)C1=O (stereo unspecified)	15.6	36.5	29.7	32.7 µM	40.3	25.4 µM	51 µM	37.3 µM	31.2	
COc1ccc2nc(C(=O)c3ccccc3)c(C)cc2c1		11	> 52	19.9 µM	> 66.7	> 100 µM	> 100 µM	20.5 µM	> 100	
Cc1ccc2nc(NC(=O)C(=O)C(C#N)c3ccc(Cl)cc3)sc2c1 (stereo unspecified)		> 50	> 50	> 50 µM		> 50 µM	> 50 µM	> 50 µM		
NC1c2ccccc2Nc2ccccc21		14.3	39.7	11.9 µM	17.1	17.5 µM	37.3 µM	12.5 µM		
O=C(O)/C(Cc1cn[nH]n1)=N\O	> 100									
COc1ccc2oc3c(OC)c(OC)c(OC)cc3c(=O)c2c1		> 100	> 100	> 100 µM	> 100	> 100 µM	> 100 µM	> 100 µM	> 100	
CCC[CH2][Sn]([CH2]CCC)([S]C#N)[S]C#N		3.6	2.44	1.98 µM	2.23	0.749 µM	2.51 µM	2.68 µM	1.43	GI50 (KM20L2 colon): 1.78 µM; GI50 (HOP-18 NSCLC): 1.21 µM; GI50 (DMS 114 small cell lung): 0.506 µM; GI50 (XF 498 CNS): 0.779 µM; GI50 (RXF-631 renal): 0.329 µM; GI50 (DLD-1 colon): 0.999 µM; GI50 (LXFL 529 NSCLC): 0.122 µM; GI50 (SNB-78 CNS): 0.663 µM
CC(C)OC(=S)Nc1ccc(Cl)c(/C=N/OC(C)(C)C)c1	42									
CCCCCC(=O)Nc1nc2nc[nH]c2c(=O)[nH]1		> 100	> 100	> 100 µM	> 100	> 100 µM	> 100 µM	> 100 µM		
C/C(CN1C(=O)c2ccccc2C1=O)=N\NS(=O)(=O)c1cccc(C(=O)O)c1		> 100	> 100	> 100 µM	> 100	> 100 µM	> 100 µM	> 100 µM	> 100	
COCCOc1cc(C)cc(/C=C(C)/C=C/C2=C(C)CCCC2(C)C)n1			> 100	> 100 µM	> 100	> 100 µM	> 100 µM	> 100 µM	> 100	
C1CCCCc2nc3c(nc2CCC1)c1nc2c(nc1c1nc4c(nc31)CCCCCCCC4)CCCCCCCC2		> 100	> 100		> 100	> 100 µM	> 100 µM		> 100	
CC1=C(C(=O)Nc2ccccc2)C(c2ccccc2Cl)C(C(=O)Nc2ccccc2)=C(C)N1		38.9	56.5		> 100	37.1 µM			> 100	

SMILES	TGI (MDA-N) [µM]	TGI (KM20L2 colon) [µM]	TGI (HOP-18 NSCLC) [µM]	TGI (XF 498 CNS)	TGI (DLD-1 colon) [µM]	TGI (LXFL 529 NSCLC)	TGI (SNB-78 CNS)	TGI (DMS 114 small cell lung)	TGI (RXF-631 renal) [µM]	other results
CC1OC(=O)C(O)=C1O (stereo unspecified)		> 100	> 100	> 100 µM		> 100 µM	> 100 µM			
O=[N+]([O-])c1ccc(Cl)c(CNc2ncnc3c2ncn3C2CCCCO2)c1 (stereo unspecified)	27									
COc1ccc(C2=Nc3ccccc3SC(C)C2)cc1OC (stereo unspecified)		33.6		32.8 µM		32 µM	66.7 µM	34.8 µM	> 100	
Cc1ccc([N+](=O)[O-])c2c(NCCNC(=O)c3cc(C(=O)NCCNc4ccnc5c(C)ccc([N+](=O)[O-])c45)n(C)n3)ccnc12	> 58									
COc1ccccc1NC(=O)C1=C(C)NC(C)=C(C(=O)Nc2ccccc2OC)C1/C=C/c1ccccc1		> 100	> 100		> 100	> 100 µM	> 100 µM	> 100 µM		
Cc1cccc(C(=O)O)c1C(=O)c1cccc2ccccc12		> 100	> 100		> 100	> 100 µM	> 100 µM	> 100 µM		
CCOC(=O)/C(=C/c1cccc(Cl)c1)N(CC)CC			84.6	> 100 µM	> 100	> 100 µM		> 100 µM		
CCOC(=O)c1cc(-c2ccc(-c3cc(C(=O)OCC)c(C#N)c(N)c3C#N)cc2)c(C#N)c(N)c1C#N		> 100	> 100	> 100 µM	> 100	> 100 µM	> 100 µM	> 100 µM	> 100	
CS(=O)(=O)OCCCNCCCOS(C)(=O)=O		5860	2560	2600 µM	9100		8530 µM	3630 µM		TGI (SN12K1 renal): 2320 µM; TGI (P388/ADR leukemia): 8330 µM
COc1cc(/C=C/c2ccc(O)c(OC)c2)cc(OC)c1	46									
CCN(CC)CC1CCCCN1CC(=O)N1CC(C)C(=O)Nc2ccccc21 (stereo unspecified)		> 100	> 100		> 100	> 100 µM		> 100 µM		
O=C(O)/C(Cc1ccnc2ccccc12)=N\O	> 100									
CCOC(=O)C(Cc1ccc(N(CCCl)CCCl)cc1)NC(=O)C(Cc1ccccc1)NC=O (stereo unspecified)	0.338									
CCC(C)CC(C)CC(C)/C=C(\C)C1=C(C)CC(C)(O)O1 (stereo unspecified)			> 100		> 100	> 100 µM	> 100 µM	> 100 µM	> 100	
CC(C)c1cccc(C(C)C)c1N1C(=O)C(=O)C(c2nc3ccccc3o2)C(=O)C1=O		> 100		89.9 µM	> 100	> 100 µM	> 100 µM	84.5 µM	> 100	
CN1Cc2ccccc2/C=C\c2ccccc21	> 100									
CC(C)c1cc(C(C)C)c(S(=O)(=O)N=[N+]=[N-])c(C(C)C)c1		> 100		> 100 µM	> 100	> 100 µM			> 100	
C#CC1=CC(=O)C(OC)=CC1=O	37.6									
O=C(NC(=O)c1c(Cl)nc2sccn12)Nc1ccc(Cl)cc1	> 100	> 100		42.3 µM	> 100		> 100 µM	> 100 µM	> 100	
CCCCCC(O)C(O)CCC[C@H](O)[C@H]1CC[C@H]([C@H]2CC[C@H]([C@H](O)CCCCCCCCCCCCC3=C[C@H](C)OC3=O)O2)O1 (stereo partly specified)	23.5									GI50 (MDA-N): 4.19 µM
